Experiments:
[1] = tested on: H1N1 (influenza virus); experiment: microbe, parasite or virus in culture; settings: Influenza A virus, H1N1, MDCK
[2] = tested on: influenza virus; experiment: microbe, parasite or virus in culture; format: cell-based; settings: unidentified influenza virus, MDCK, read-out: inhibitory effect on influenza virus
[3] = tested on: H7N9 (influenza virus); settings: H7N9 in host cell MDCK
[4] = tested on: EV71 (hand-foot-and-mouth virus); settings: EV71 in host cell RD
[5] = tested on: Dengue Virus 2 (type 2 dengue virus); experiment: Inhibition of viral replication (CPE) at cellular level, Dengue Virus 2 in Vero; format: cell-based; settings: Dengue Virus 2 in host cell Vero
Source text: Activity Test for Inhibition of Viral Replication at Cellular Level […]
The present inventors tested inhibitory effects of the compound of the present invention on cytopathic effects (CPE) caused by viral infection on mammalian cells.
Half-inhibitory concentration IC50 and half toxic concentration TC50 of the compound against Dengue Virus 2 (type 2 dengue virus) in host cell Vero (African green monkey kidney cell).

[6] = tested on: H7N9 (influenza virus); experiment: microbe, parasite or virus in culture; settings: Influenza A virus, H7N9, MDCK
[7] = in vitro; settings: dog
[8] = tested on: H3N2 (influenza virus); settings: H3N2 in host cell MDCK
[9] = tested on: H1N1 (influenza virus); settings: H1N1 in host cell MDCK
[10] = in vitro; settings: African green monkey, TC50, host cell Vero
[11] = tested on: RSV (human respiratory syncytial virus); experiment: Inhibition of viral replication (CPE) at cellular level, RSV in Vero
[12] = Determination of TC50 (half toxicity concentration) in RD cells; format: cell-based; settings: human, host cell RD, EV71 table
[13] = tested on: H3N2 (influenza virus); experiment: microbe, parasite or virus in culture; settings: Influenza A virus, H3N2, MDCK
[14] = tested on: EV71 (hand-foot-and-mouth virus); experiment: microbe, parasite or virus in culture; settings: Enterovirus A
[15] = tested on: H7N9 avian influenza virus; format: in vivo; settings: lethal dose H7N9 (1MLD50) nasal, Compound 16 10 mg/kg, Oseltamivir 20 mg/kg, intraperitoneal, once a day for first 5 days, FIG. 4
[16] = tested on: JEV (Japanese encephalitis virus); experiment: Inhibition of viral replication (CPE) at cellular level, JEV in Vero
[17] = tested on: Zika Virus; experiment: Inhibition of viral replication (CPE) at cellular level, Zika Virus in Vero

O=C(O)c1ccccc1/C=N/Nc1nc(-c2ccccc2Cl)cs1 [Compound 16, (E)-4-(2-chlorophenyl)-2-(2-carboxybenzylidenehydrazino)thiazole]
IC50 [1]: 500 nM
IC50 [2]: ~2000 nM
SI (TC50/IC50) [3]: >41.7
SI (TC50/IC50) [4]: 3.3
SI (TC50/IC50) [5]: 167
IC50 ([5]; CPE): 120 nM
IC50 [6]: 1200 nM
CC50 [7]: > 50000 nM
SI (TC50/IC50) [8]: >250
SI (TC50/IC50) [9]: >100
CC50 ([10]; Dengue Virus 2 table): 20000 nM
CC50 ([10]; RSV table): 20000 nM
CC50 ([10]; Zika Virus table): 20000 nM
inhibitory effects on human respiratory syncytial virus RSV ([11]; FIG. 3): a certain inhibitory effects
SI (TC50/IC50) ([11]; RSV in host cell Vero): 4
IC50 ([11]; human respiratory syncytial virus, Vero): 5000 nM
CC50 [12]: 1000 nM
IC50 [13]: 200 nM
IC50 [14]: 300 nM
therapeutic effect, recovery in the body weight of infected mice [15]: therapeutic effects similar to the positive drug Oseltamivir
SI (TC50/IC50) ([16]; JEV in host cell Vero): 100
IC50 ([16]; Japanese encephalitis virus, Vero): 200 nM
SI (TC50/IC50) ([17]; Zika Virus in host cell Vero): 133
IC50 ([17]; Zika virus, Vero): 150 nM

— patent US11590109B2 (priority 2016, dated 2023)
